Results from paper PMC12621202, “RTx-303, an Orally Bioavailable Polθ Polymerase Inhibitor That Potentiates PARP Inhibitors in BRCA Mutant Tumors” (Journal of Medicinal Chemistry, 2025).
Like-named read-outs stand apart in the source and are kept apart here.

Tests used:
[1] = biological target: T1, recombinant human Polθ-pol (Homo sapiens, UniProt O75417); assay: Fluorescent-based IC50 DNA synthesis assay; type: biochemical; details: n=3
T1 construct: purified recombinant human Polθ-pol (comprising amino acid residues 1792–2590); made in house
T1 sequence (O75417 1792-2590): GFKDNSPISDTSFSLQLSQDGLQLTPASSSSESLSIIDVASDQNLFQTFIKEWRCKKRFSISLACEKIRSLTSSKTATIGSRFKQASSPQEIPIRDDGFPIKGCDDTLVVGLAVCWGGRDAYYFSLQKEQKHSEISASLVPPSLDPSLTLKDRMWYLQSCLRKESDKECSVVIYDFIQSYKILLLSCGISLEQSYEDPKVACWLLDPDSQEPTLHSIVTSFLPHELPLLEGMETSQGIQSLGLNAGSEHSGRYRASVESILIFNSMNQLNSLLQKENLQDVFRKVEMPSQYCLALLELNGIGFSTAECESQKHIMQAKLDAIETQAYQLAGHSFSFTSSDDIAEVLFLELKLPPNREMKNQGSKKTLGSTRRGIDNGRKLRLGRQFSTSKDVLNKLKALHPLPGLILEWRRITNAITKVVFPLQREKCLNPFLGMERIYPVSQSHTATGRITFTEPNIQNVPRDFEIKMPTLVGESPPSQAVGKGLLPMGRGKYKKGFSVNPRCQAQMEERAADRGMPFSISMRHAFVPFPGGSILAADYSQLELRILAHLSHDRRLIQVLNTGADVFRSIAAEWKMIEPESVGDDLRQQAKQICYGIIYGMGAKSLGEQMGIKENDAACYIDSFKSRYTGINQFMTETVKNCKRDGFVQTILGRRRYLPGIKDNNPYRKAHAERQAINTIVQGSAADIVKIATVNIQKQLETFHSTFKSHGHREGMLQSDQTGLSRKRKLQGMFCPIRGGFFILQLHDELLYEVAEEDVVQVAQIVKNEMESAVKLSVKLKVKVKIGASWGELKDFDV
Method: The biochemical Polθ-pol IC50 assay was developed in a prior report. Briefly, 60 nM of the preannealed primer-template containing a 5′ Cy5 fluorophore-conjugated template strand (RP486-Cy5), a downstream complementary oligo conjugated with a 3′ Iowa BlackReg Dark quencher (RP343BHQRQ) and a primer strand (RP469D) was mixed with 50 μM 2’-deoxyribonucleoside triphosphates (dNTPs), 0.1 mg/mL bovine serum albumin (BSA), 0.01% NP-40, 10% glycerol, 1 mM dithiothreitol (DTT), 10 mM MgCl2, 25 mM TrisHCl pH 7.8 in the presence of 2.5% DMSO with or without various concentrations (7-point dilution series) of Polθ-pol small-molecule inhibitors at 37 °C in a volume of 40 μL. The reactions were initiated by the addition of 5 nM of purified recombinant human Polθ-pol (comprising amino acid residues 1792–2590). The reactions were terminated by the addition of 20 mM EDTA after 18 min, and the Cy5 fluorescence intensity was measured using a CLARIOstar (BMG Labtech) plate reader. Reactions were performed in triplicate and the % inhibition at each concentration of the respective compound was based on the mean.

[2] = tested on: HRD cells versus HR-proficient cells; assay: Colony survival in HRD and HR-proficient cell lines; type: cell-based; details: IC50 bar plots, values not given
Method: (§1) Colony survival assays were performed on 24-well plates. 800 cells/well of HCT, DLD1- BRCA2 −/–, PALB2 −/–, MEF BRCA1 […], PEO1, SNU-601, SKOV3- BRCA2 −/–, OVCAR8 cells and 200 cells/well of HCT, DLD1, MEF, SKOV3 wildtype cells were plated. For MDA pair, 500 cells/well of MDA436 and 100 cells of MDA231 were plated. Cells were treated with the compound 24 h after plating and the medium was replaced every two or 3 days until the colonies were ready for staining. Colonies were typically ready for staining in 10–12 days. For staining: Medium was removed from plates, and cells were rinsed with PBS. Fixation was carried out with Water:Ethanol:Acetic acid (5:4:1) for 30 min followed by staining of colonies with 0.5% crystal violet in Water:Ethanol (3:2) for 2 h at room temperature. The plates were rinsed with water and left for drying overnight at room temperature. Colonies were then counted manually, and response curves are shown as mean colony formation ± SEM. IC50 was calculated with GraphPad Prism using nonlinear regression analysis, inhibitor vs response (variable slope) equation.

BRCA2^-/- HCT116 = assay: Clonogenic (colony) survival assay; type: cell-based, human; details: for IC50: Homo sapiens; for fold lower IC50 in BRCA2–/– HCT116 cells compared to RTx-161 / selectivity against BRCA2–/– versus BRCA+/+ HCT116 cells: clonogenic survival
Method: as §1

[3] = tested on: other recombinant DNA polymerases, including the related A-family Polγ; assay: DNA polymerase selectivity (primer extension); type: biochemical; details: in vitro primer extension
Text: A. Denaturing gel showing primer extension by the indicated DNA polymerases in the presence or absence of RT x-303. B. Bar plot showing % relative extension by the indicated DNA polymerases in the presence and absence of RT x-303.
(also on this page, place not known: Extension to DMSO control RTx-303. % relative RTx-303.)
(1 picture or pasted object on this page, not shown here)

BRCA2^+/+ HCT116 = assay: Clonogenic (colony) survival assay; type: cell-based; details: Homo sapiens
Method: as §1

Mouse plasma stability = type: in vitro ADME; details: CD1, pH 7.4, read-out: T1/2 mouse plasma
Method: Mouse Plasma and PBS Stability. The stability of compounds at 1 μM were tested in duplicate at 37 °C in 500 μL of either 2.5% DMSO/97.5% mouse plasma (Innovative Research IGMSCD1PLANH50 ML; pooled plasma from CD1 mice; sodium heparin as anticoagulant; pH adjusted to 7.4) or 2.5% DMSO/97.5% phosphate-buffered saline (pH = 7.4 PBS: 136.9 mM NaCl; 2.68 mM KCl; 8.1 mM Na2HPO4; 1.47 mM KH2PO4; 0.9 mM CaCl2; 0.49 mM MgCl2). At 0, 30, 90, and 180 min time points, 50 μL aliquots were transferred to wells in a 96-well plate on ice containing 200 μL of ACN:water 85:15 containing the internal standard. After centrifugation (10 min; 4000 × g), supernatants were analyzed by LC/MS as described. Standard curves (0–1000 nM) were generated in PBS and plasma. Data were fit to a one-phase decay equation using GraphPad Prism 5.04 to generate T1/2 values.

[4] = Rat plasma protein binding; type: in vitro ADME
Text: 5 Pharmacokinetics of Pure Enantiomers and Equipotent Metabolites | column: Avg. free unbound exposure (nM/hr) / Rat plasma protein binding (% free)

Hepatocyte stability = type: in vitro ADME; details: rat (SD) hepatocytes, male; read-out: Rat (SD)^+ (T1/2 min)
[5] = HCT-116, read-out: IC50 BRCA2^-/- HCT116 (μM)
[6] = HCT-116, read-out: IC50 BRCA2^+/+ HCT116 (μM)

| SMILES | IC50 [1] [nM] | killing of HRD versus HR-proficient cell lines [2] | IC50 (BRCA2^-/- HCT116; [5]) [µM] | fold lower IC50 in BRCA2–/– HCT116 cells compared to RTx-161 (BRCA2^-/- HCT116) [fold] | selectivity against BRCA2–/– versus BRCA+/+ HCT116 cells (BRCA2^-/- HCT116) [fold] | inhibition of other DNA polymerases [3] | IC50 (BRCA2^+/+ HCT116; [6]) [µM] | half-life at 1 μM (Mouse plasma stability) [h] | Rat plasma protein binding (% free) [4] [% free] | half-life at 1 μM (Hepatocyte stability) [h] | IC50 (BRCA2^-/- HCT116; HCT-116, read-out: IC50(nM) HCT116 BRCA2 –/–) [µM] | IC50 (BRCA2^+/+ HCT116; HCT-116, read-out: IC50(nM) HCT116 BRCA2 +/+) [µM] |
| --- | --- | --- | --- | --- | --- | --- | --- | --- | --- | --- | --- | --- |
| [2H]C([2H])([2H])N(C(=O)Oc1c(N2CCN(CC(O)CN(C)C)C2=O)cc(C(F)(F)F)cc1C(F)(F)F)c1ccc(F)cc1 (stereo not drawn) [RTx-284, 2-{3-[3-(Dimethylamino)-2-hydroxypropyl]-2-oxoimidazolidin-1-yl}-4,6-bis(trifluoromethyl)phenyl N-(4-fluorophenyl)-N-(methyl-d3)-carbamate] | 5.5 | selective killing of multiple HRD cells | 0.11 | > 10 | > 100 | no inhibition | > 12 | > 3 | – | – | – | – |
| [2H]C([2H])([2H])N(C(=O)Oc1c(N2CCN(CC(O)CNC)C2=O)cc(C(F)(F)F)cc1C(F)(F)F)c1ccc(F)cc1 (stereo not drawn) [RTx-283, 2-(3-(2-Hydroxy-3-(methylamino)propyl)-2-oxoimidazolidin-1-yl)-4,6-bis(trifluoromethyl)phenyl (4-fluorophenyl)(methyl-d3)carbamate] | 6.1 | – | 0.03 | > 10 | > 100 | – | 16.3 | > 3 | – | – | – | – |
| [2H]C([2H])([2H])N(C(=O)Oc1c(N2CCN(C[C@H](O)CNC)C2=O)cc(C(F)(F)F)cc1C(F)(F)F)c1ccc(F)cc1 [RTx-315] | 13.6 | – | – | – | – | – | – | – | 7.1 | 2.02 | – | – |
| [2H]C([2H])([2H])N(C(=O)Oc1c(N2CCN(C[C@H](O)CN(C)C)C2=O)cc(C(F)(F)F)cc1C(F)(F)F)c1ccc(F)cc1 [RTx-303] | 5.1 | selective killing of HRD cells | – | – | – | no significant inhibition | – | – | 9.8 | 0.843 | 0.0812 | > 1.28 |
